pIC50: −log10 of the molar value. Values joined by “and” are separate entries in the source; they are usually repeats but may differ in a detail not shown here. Equal values may be shown once.
System: 996289-038-R-J1-PDC complex spheroid viability
Assay: Anticancer human tumor 996289-038-R-J1-PDC patient-derived colon adenocarcinoma cell line growth inhibition [CLK]
Details: for viability, T/C: stronger effect = lower value
Summary of the method: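 Patient-derived tumor cells grown as complex spheroids with HUVEC endothelial cells and mesenchymal stem cells, treated with drug combinations. Concentrations descend in half-log steps from near clinical Cmax, or from 10 microM if Cmax unknown.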
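Further: spheroids exposed to the agents for 7 days before readout.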

SMILES: CCCS(=O)(=O)Nc1ccc(F)c(C(=O)c2c[nH]c3ncc(-c4ccc(Cl)cc4)cc23)c1F
- viability, T/C (compound 0.0316 µM): 95.8% and 104%
- viability, T/C (compound 0.1 µM): 87.2% and 87.3%
- viability, T/C (compound 0.316 µM): 94.7% and 101%
- viability, T/C (compound 1 µM): 103% and 110%
- viability, T/C (compound 3.16 µM): 94.8% and 101%
- viability, T/C (compound 10 µM): 77.8% and 67.8%
- pIC50 (curve of compound): < 5.00

SMILES: NC(=O)C(=Cn1cnc(-c2cc(C(F)(F)F)cc(C(F)(F)F)c2)n1)c1cncnc1 + CN1CCN(c2cc(C(=O)Nc3cc4cc(-c5cnn(C)c5)ccc4cn3)ccn2)CC1
- pIC50 (curve of first compound, second compound 0.0316 µM): 7.27
- pIC50 (curve of first compound, second compound 0.1 µM): 7.53
- pIC50 (curve of first compound, second compound 0.316 µM): > 8.02
- pIC50 (curve of first compound, second compound 1 µM): > 8.02
- pIC50 (curve of first compound, second compound 3.16 µM): > 8.02
- pIC50 (curve of first compound, second compound 10 µM): > 8.02
- viability, T/C (second compound 0.0316 µM, first compound 0.00949 µM): 73.6%
- viability, T/C (second compound 0.0316 µM, first compound 0.03 µM): 64%
- viability, T/C (second compound 0.0316 µM, first compound 0.0949 µM): 36.1%
- viability, T/C (second compound 0.0316 µM, first compound 0.3 µM): 18.6%
- viability, T/C (second compound 0.0316 µM, first compound 0.949 µM): 10.6%
- viability, T/C (second compound 0.0316 µM, first compound 3 µM): 11.7%
- viability, T/C (second compound 0.1 µM, first compound 0.00949 µM): 68%
- viability, T/C (second compound 0.1 µM, first compound 0.03 µM): 49.7%
- viability, T/C (second compound 0.1 µM, first compound 0.0949 µM): 24.9%
- viability, T/C (second compound 0.1 µM, first compound 0.3 µM): 11.1%
- viability, T/C (second compound 0.1 µM, first compound 0.949 µM): 4.64%
- viability, T/C (second compound 0.1 µM, first compound 3 µM): 5.12%
- viability, T/C (second compound 0.316 µM, first compound 0.00949 µM): 33.9%
- viability, T/C (second compound 0.316 µM, first compound 0.03 µM): 19.1%
- viability, T/C (second compound 0.316 µM, first compound 0.0949 µM): 2.74%
- viability, T/C (second compound 0.316 µM, first compound 0.3 µM): 0.87%
- viability, T/C (second compound 0.316 µM, first compound 0.949 µM): 1.43%
- viability, T/C (second compound 0.316 µM, first compound 3 µM): 1.38%
- viability, T/C (second compound 1 µM, first compound 0.00949 µM): 0.93%
- viability, T/C (second compound 1 µM, first compound 0.03 µM): 0.76%
- viability, T/C (second compound 1 µM, first compound 0.0949 µM): 0.81%
- viability, T/C (second compound 1 µM, first compound 0.3 µM): 1.31%
- viability, T/C (second compound 1 µM, first compound 0.949 µM): 1.15%
- viability, T/C (second compound 1 µM, first compound 3 µM): 2.01%
- viability, T/C (second compound 3.16 µM, first compound 0.00949 µM): 1.17%
- viability, T/C (second compound 3.16 µM, first compound 0.03 µM): 0.72%
- viability, T/C (second compound 3.16 µM, first compound 0.0949 µM): 1.2%
- viability, T/C (second compound 3.16 µM, first compound 0.3 µM): 1.12%
- viability, T/C (second compound 3.16 µM, first compound 0.949 µM): 1.5%
- viability, T/C (second compound 3.16 µM, first compound 3 µM): 2.18%
- viability, T/C (second compound 10 µM, first compound 0.00949 µM): 0.52%
- viability, T/C (second compound 10 µM, first compound 0.03 µM): 0.5%
- viability, T/C (second compound 10 µM, first compound 0.0949 µM): 0.74%
- viability, T/C (second compound 10 µM, first compound 0.3 µM): 0.52%
- viability, T/C (second compound 10 µM, first compound 0.949 µM): 0.45%
- viability, T/C (second compound 10 µM, first compound 3 µM): 1.52%
